Source: BindingDB's records for doi:10.1016/j.bmcl.2007.06.017 (Tanabe Research Laboratories Usa, 2007)

Molecular target: T1, Oxysterols receptor LXR-beta (Homo sapiens, UniProt P55055)
T1 sequence (P55055 whole entry): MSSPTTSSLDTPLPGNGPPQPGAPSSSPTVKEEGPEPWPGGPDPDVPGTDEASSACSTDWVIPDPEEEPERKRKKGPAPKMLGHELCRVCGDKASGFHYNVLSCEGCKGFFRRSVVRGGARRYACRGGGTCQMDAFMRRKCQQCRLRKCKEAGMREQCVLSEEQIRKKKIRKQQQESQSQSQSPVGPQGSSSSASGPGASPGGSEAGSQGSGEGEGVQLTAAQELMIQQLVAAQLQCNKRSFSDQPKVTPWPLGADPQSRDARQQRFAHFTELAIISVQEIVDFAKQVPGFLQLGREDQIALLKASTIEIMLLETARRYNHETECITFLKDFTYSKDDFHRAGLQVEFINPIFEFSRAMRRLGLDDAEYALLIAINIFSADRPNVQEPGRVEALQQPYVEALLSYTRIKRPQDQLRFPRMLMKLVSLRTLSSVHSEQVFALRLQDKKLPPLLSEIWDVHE
Test: HTRF Cofactor Peptide Recruitment Assay
Conditions: pH 7.5; 22 °C
Protocol: Polyhistidine-tagged human LXR ligand-binding domain was mixed with the test compound, biotin-SRC1 peptide, streptavidin-allophycocyanin, and europium labeled anti-polyhistidine antibody in reaction buffer, and the mixture was incubated in a 384-well assay plate format.

## CC(C)(C)OC(=O)n1c(-c2ccc(CCNS(=O)(=O)c3ccc(-c4ccccn4)s3)cc2)cc2ccccc21 [tert-butyl 2-[4-(2-{[5-(pyridin-2-yl)thiophene-2-]sulfonamido}ethyl)phenyl]-1H-indole-1-carboxylate]
  EC50: 230 nM
